Measurements taken from US11051515B2, “3-acyl-benzamides and their use as herbicides” (Bayer Aktiengesellschaft, priority 2017, dated 2021).

Columns and labels:
LOLRI [1] = assay: Pre-emergence action against LOLRI; assay type: in vivo, Lolium rigidum; settings: dosage 320 g/ha, scored visually after 3 weeks vs untreated controls
In short: (§1)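 Seeds sown in sandy loam in wood-fiber pots and covered with soil. Greenhouse growth; visual damage scored after 3 weeks versus untreated controls (100% = dead, 0% = like control).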

VIOTR [2] = assay: Pre-emergence action against VIOTR; assay type: in vivo, Viola tricolor; settings: Dosage 320 g/ha, pre-emergence
In short: as §1

AVEFA [3] = assay: Post-emergence action against AVEFA; assay type: in vivo, Avena fatua; settings: post-emergence, dosage 80 g/ha, visual assessment about 3 weeks after treatment vs untreated controls
In short: (§2)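 Post-emergence foliar spray on greenhouse plants at the one-leaf stage, using wettable-powder or emulsion-concentrate formulations in water (600 to […], plus 0.2% wetting agent). Damage scored by eye roughly 3 weeks later against untreated plants: 0% = like control, 100% = dead.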

ABUTH [4] = assay: Post-emergence action against ABUTH; assay type: in vivo, Abutilon theophrasti; settings: post-emergence, dosage 80 g/ha, visual assessment about 3 weeks after treatment vs untreated controls
In short: as §2

SETVI [5] = assay: Pre-emergence action against SETVI; assay type: in vivo, Setaria viridis; settings: pre-emergence, dosage 320 g/ha, scored visually after 3 weeks vs untreated controls
In short: as §1

CYPES [6] = assay: Pre-emergence action against CYPES; assay type: in vivo, Cyperus esculentus; settings: pre-emergence, dosage 320 g/ha, scored visually after 3 weeks vs untreated controls
In short: as §1

VERPE [7] = assay: Pre-emergence action against VERPE; assay type: in vivo, Veronica persica; settings: Dosage 320 g/ha, pre-emergence
In short: as §1

AVEFA [8] = assay: Pre-emergence action against AVEFA; assay type: in vivo, Avena fatua; settings: dosage 320 g/ha, scored visually after 3 weeks vs untreated controls
In short: as §1

AMARE [9] = assay: Pre-emergence action against AMARE; assay type: in vivo, Amaranthus retroflexus; settings: pre-emergence, dosage 320 g/ha, scored visually after 3 weeks vs untreated controls
In short: as §1

PHBPU [10] = assay: Post-emergence action against PHBPU; assay type: in vivo, Pharbitis purpurea; settings: post-emergence, dosage 80 g/ha
In short: as §2

LOLRI [11] = assay: Post-emergence action against LOLRI; assay type: in vivo, Lolium rigidum; settings: dosage 80 g/ha, visual assessment about 3 weeks after treatment vs untreated controls
Description: Seeds of monocotyledonous and dicotyledonous weed and crop plants are laid out in sandy loam soil in wood-fiber pots, covered with soil and cultivated in a greenhouse under good growth conditions. 2 to 3 weeks after sowing, the test plants are treated at the one-leaf stage. The compounds of the invention, formulated in the form of wettable powders (WP) or as emulsion concentrates (EC), are then sprayed onto the green parts of the plants in the form of an aqueous suspension or emulsion at a water application rate equating to […], with addition of 0.2% wetting agent. After the test plants have been left to stand in the greenhouse under optimal growth conditions for about 3 weeks, the action of the preparations is assessed visually in comparison to untreated controls (herbicidal action in percent (%): 100% activity=the plants have died, 0% activity=like control plants). […] At the same time, inventive compounds leave Gramineae crops such as barley, wheat, rye, millet/Sorghum, corn or rice virtually undamaged when applied post-emergence, even at high active ingredient dosages. In addition, some substances are also harmless to dicotyledonous crops such as soya, cotton, oilseed rape, sugar beet or potatoes. Some of the compounds according to the invention have high selectivity and are therefore suitable for controlling unwanted vegetation in agricultural crops by the post-emergence method. The data of Tables B18 to B34 below illustrate, in an exemplary manner, the […] herbicidal action of the compounds according to the invention, the herbicidal activity being stated in percent.

MATIN [12] = assay: Pre-emergence action against MATIN; assay type: in vivo, Matricaria inodora; settings: Dosage 320 g/ha, pre-emergence
In short: as §1

STEME [13] = assay: Pre-emergence action against STEME; assay type: in vivo, Stellaria media; settings: Dosage 320 g/ha, pre-emergence
In short: as §1

AMARE [14] = assay: Post-emergence action against AMARE; assay type: in vivo, Amaranthus retroflexus; settings: post-emergence, dosage 80 g/ha, visual assessment about 3 weeks after treatment vs untreated controls
In short: as §2

MATIN [15] = assay: Post-emergence action against MATIN; assay type: in vivo, Matricaria inodora; settings: post-emergence, dosage 80 g/ha, visual assessment about 3 weeks after treatment vs untreated controls
In short: as §2

SETVI [16] = assay: Post-emergence action against SETVI; assay type: in vivo, Setaria viridis; settings: post-emergence, dosage 80 g/ha, visual assessment about 3 weeks after treatment vs untreated controls
In short: as §2

ECHCG [17] = assay: Pre-emergence action against ECHCG; assay type: in vivo, Echinochloa crus-galli; settings: pre-emergence, dosage 320 g/ha, scored visually after 3 weeks vs untreated controls
In short: as §1

ABUTH [18] = assay: Pre-emergence action against ABUTH; assay type: in vivo, Abutilon theophrasti; settings: pre-emergence, dosage 320 g/ha, scored visually after 3 weeks vs untreated controls
In short: as §1

ALOMY [19] = assay: Pre-emergence action against ALOMY; assay type: in vivo, Alopecurus myosuroides; settings: dosage 320 g/ha, pre-emergence, scored visually after 3 weeks vs untreated controls, 100% = plants have died, 0% = like control plants
In short: as §1

ECHCG [20] = assay: Post-emergence action against ECHCG; assay type: in vivo, Echinochloa crus-galli; settings: post-emergence, dosage 80 g/ha, visual assessment about 3 weeks after treatment vs untreated controls
In short: as §2

PHBPU [21] = assay: Pre-emergence action against PHBPU; assay type: in vivo, Pharbitis purpurea; settings: Dosage 320 g/ha, pre-emergence
In short: as §1

STEME [22] = assay: Post-emergence action against STEME; assay type: in vivo, Stellaria media; settings: post-emergence, dosage 80 g/ha
In short: as §2

POLCO = assay: Pre-emergence action against POLCO; assay type: in vivo, Polygonum convolvulus; settings: Dosage 320 g/ha, pre-emergence
In short: as §1

VERPE [23] = assay: Post-emergence action against VERPE; assay type: in vivo, Veronica persica; settings: dosage 80 g/ha
In short: as §2

ALOMY [24] = assay: Post-emergence action against ALOMY; assay type: in vivo, Alopecurus myosuroides; settings: Dosage 80 g/ha, post-emergence
In short: as §2

VIOTR [25] = assay: Post-emergence action against VIOTR; assay type: in vivo, Viola tricolor; settings: post-emergence, dosage 80 g/ha
In short: as §2

CYPES [26] = assay: Post-emergence action against CYPES; assay type: in vivo, Cyperus esculentus; settings: Cyperus esculentus, 504 h; post-emergence, dosage 80 g/ha, visual assessment about 3 weeks after treatment vs untreated controls; read-out: Post-emergence action against CYPES (herbicidal action in percent)
In short: as §2

Structure (SMILES): CCn1nnnc1NC(=O)c1ccc(C(F)(F)F)c(C(=O)C2(C)CC2)c1Cl [2-147]
- Pre-emergence action against LOLRI (herbicidal activity) (LOLRI [1]): 90%
- Pre-emergence action against VIOTR (VIOTR [2]): 100%
- Post-emergence action against AVEFA (herbicidal action in percent) (AVEFA [3]): 80%
- Post-emergence action against ABUTH (herbicidal action in percent) (ABUTH [4]): 90%
- SETVI (Table B8, pre-emergence herbicidal activity) (SETVI [5]): 100%
- Pre-emergence action against CYPES (herbicidal activity) (CYPES [6]): 80%
- Pre-emergence action against VERPE (VERPE [7]): 80%
- Pre-emergence action against AVEFA (herbicidal activity) (AVEFA [8]): 90%
- Pre-emergence action against AMARE (herbicidal activity) (AMARE [9]): 100%
- Post-emergence action against PHBPU (PHBPU [10]): 90
- Post-emergence action against LOLRI (herbicidal action in percent) (LOLRI [11]): 80%
- Pre-emergence action against MATIN (MATIN [12]): 100%
- Pre-emergence action against STEME (STEME [13]): 100%
- Post-emergence action against AMARE (herbicidal action in percent) (AMARE [14]): 80%
- Post-emergence action against MATIN (herbicidal action in percent) (MATIN [15]): 100%
- Post-emergence action against SETVI (herbicidal action in percent) (SETVI [16]): 80%
- Pre-emergence action against ECHCG (herbicidal activity) (ECHCG [17]): 100%
- Pre-emergence action against ABUTH (herbicidal activity) (ABUTH [18]): 100%
- Pre-emergence action against ALOMY (herbicidal activity in percent) (ALOMY [19]): 90%
- Post-emergence action against ECHCG (herbicidal action in percent) (ECHCG [20]): 80%

Structure (SMILES): CCn1nnnc1NC(=O)c1ccc(C(F)(F)F)c(C(=O)C2CC2C)c1Cl (stereo not drawn) [2-148]
- Pre-emergence action against LOLRI (herbicidal activity) (LOLRI [1]): 90%
- Pre-emergence action against PHBPU (PHBPU [21]): 90%
- Post-emergence action against STEME (STEME [22]): 90
- Pre-emergence action against VIOTR (VIOTR [2]): 100%
- Pre-emergence action against POLCO (POLCO): 90%
- Post-emergence action against ABUTH (herbicidal action in percent) (ABUTH [4]): 90%
- SETVI (Table B8, pre-emergence herbicidal activity) (SETVI [5]): 100%
- Pre-emergence action against CYPES (herbicidal activity) (CYPES [6]): 90%
- Pre-emergence action against VERPE (VERPE [7]): 100%
- Pre-emergence action against AVEFA (herbicidal activity) (AVEFA [8]): 90%
- Pre-emergence action against AMARE (herbicidal activity) (AMARE [9]): 100%
- Post-emergence action against VERPE (VERPE [23]): 90
- Post-emergence action against PHBPU (PHBPU [10]): 90
- Post-emergence action against LOLRI (herbicidal action in percent) (LOLRI [11]): 80%
- Pre-emergence action against MATIN (MATIN [12]): 100%
- Pre-emergence action against STEME (STEME [13]): 90%
- Post-emergence action against ALOMY (ALOMY [24]): 90%
- Post-emergence action against AMARE (herbicidal action in percent) (AMARE [14]): 90%
- Post-emergence action against MATIN (herbicidal action in percent) (MATIN [15]): 90%
- Post-emergence action against SETVI (herbicidal action in percent) (SETVI [16]): 90%
- Pre-emergence action against ECHCG (herbicidal activity) (ECHCG [17]): 100%
- Pre-emergence action against ABUTH (herbicidal activity) (ABUTH [18]): 100%
- Post-emergence action against VIOTR (VIOTR [25]): 90
- Pre-emergence action against ALOMY (herbicidal activity in percent) (ALOMY [19]): 90%
- Post-emergence action against ECHCG (herbicidal action in percent) (ECHCG [20]): 90%

Structure (SMILES): CC(C)C(=O)c1c(C(F)(F)F)ccc(C(=O)Nc2nnnn2C)c1Cl [1-140]
- pest or weed control at 320 g/ha (LOLRI [1]; Lolium rigidum, 504 h, read-out: Pre-emergence action against LOLRI (herbicidal activity)): 100%
- pest or weed control at 80 g/ha (STEME [22]; Stellaria media, 504 h): 100%
- pest or weed control at 320 g/ha (VIOTR [2]; Viola tricolor, 504 h): 100%
- pest or weed control at 320 g/ha (POLCO; Fallopia convolvulus, 504 h): 80%
- pest or weed control at 80 g/ha (ABUTH [4]; Abutilon theophrasti, 504 h, read-out: Post-emergence action against ABUTH (herbicidal action in percent)): 100%
- pest or weed control at 320 g/ha (SETVI [5]; Setaria viridis, 504 h, read-out: SETVI (Table B8, pre-emergence herbicidal activity)): 100%
- pest or weed control at 320 g/ha (CYPES [6]; Cyperus esculentus, 504 h, read-out: Pre-emergence action against CYPES (herbicidal activity)): 90%
- pest or weed control at 320 g/ha (VERPE [7]; Veronica persica, 504 h): 100%
- pest or weed control at 80 g/ha (CYPES [26]): 90%
- pest or weed control at 320 g/ha (AVEFA [8]; Avena fatua, 504 h, read-out: Pre-emergence action against AVEFA (herbicidal activity)): 80%
- pest or weed control at 320 g/ha (AMARE [9]; Amaranthus retroflexus, 504 h, read-out: Pre-emergence action against AMARE (herbicidal activity)): 100%
- pest or weed control at 80 g/ha (VERPE [23]; Veronica persica, 504 h): 80%
- pest or weed control at 80 g/ha (PHBPU [10]; Ipomoea purpurea, 504 h): 90%
- pest or weed control at 80 g/ha (LOLRI [11]; Lolium rigidum, 504 h, read-out: Post-emergence action against LOLRI (herbicidal action in percent)): 80%
- pest or weed control at 320 g/ha (MATIN [12]; Tripleurospermum inodorum, 504 h): 100%
- pest or weed control at 320 g/ha (STEME [13]; Stellaria media, 504 h): 100%
- pest or weed control at 80 g/ha (AMARE [14]; Amaranthus retroflexus, 504 h, read-out: Post-emergence action against AMARE (herbicidal action in percent)): 90%
- pest or weed control at 80 g/ha (MATIN [15]; Tripleurospermum inodorum, 504 h, read-out: Post-emergence action against MATIN (herbicidal action in percent)): 100%
- pest or weed control at 80 g/ha (SETVI [16]; Setaria viridis, 504 h, read-out: Post-emergence action against SETVI (herbicidal action in percent)): 100%
- pest or weed control at 320 g/ha (ECHCG [17]; Echinochloa crus-galli, 504 h, read-out: Pre-emergence action against ECHCG (herbicidal activity)): 100%
- pest or weed control at 320 g/ha (ABUTH [18]; Abutilon theophrasti, 504 h, read-out: Pre-emergence action against ABUTH (herbicidal activity)): 100%
- pest or weed control at 80 g/ha (VIOTR [25]; Viola tricolor, 504 h): 100%
- pest or weed control at 320 g/ha (ALOMY [19]; Alopecurus myosuroides, 504 h, read-out: Pre-emergence action against ALOMY (herbicidal activity in percent)): 100%
- pest or weed control at 80 g/ha (ECHCG [20]; Echinochloa crus-galli, 504 h, read-out: Post-emergence action against ECHCG (herbicidal action in percent)): 100%
